{"source": "ChEMBL document CHEMBL1201862", "about": "“PubChem BioAssay data set” (2004)", "key": {"[1]": {"molecular_target": "Peroxisome proliferator-activated receptor gamma/Nuclear receptor coactivator 2 (Homo sapiens, UniProt P37231)", "sequence (P37231 whole entry)": "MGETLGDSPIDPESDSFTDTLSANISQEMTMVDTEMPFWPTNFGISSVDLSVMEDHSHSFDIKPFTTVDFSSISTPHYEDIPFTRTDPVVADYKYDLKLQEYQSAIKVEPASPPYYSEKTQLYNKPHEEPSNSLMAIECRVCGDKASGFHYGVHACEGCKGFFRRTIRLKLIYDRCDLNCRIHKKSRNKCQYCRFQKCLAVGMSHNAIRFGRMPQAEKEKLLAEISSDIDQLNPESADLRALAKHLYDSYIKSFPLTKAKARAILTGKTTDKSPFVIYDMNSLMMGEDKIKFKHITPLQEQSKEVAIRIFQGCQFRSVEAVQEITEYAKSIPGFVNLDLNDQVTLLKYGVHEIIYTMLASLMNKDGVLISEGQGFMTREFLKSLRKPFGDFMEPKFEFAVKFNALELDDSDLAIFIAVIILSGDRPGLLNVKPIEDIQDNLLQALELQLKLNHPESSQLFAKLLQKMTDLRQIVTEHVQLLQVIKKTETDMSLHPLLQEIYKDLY", "sequence (Q15596 whole entry, further chain)": "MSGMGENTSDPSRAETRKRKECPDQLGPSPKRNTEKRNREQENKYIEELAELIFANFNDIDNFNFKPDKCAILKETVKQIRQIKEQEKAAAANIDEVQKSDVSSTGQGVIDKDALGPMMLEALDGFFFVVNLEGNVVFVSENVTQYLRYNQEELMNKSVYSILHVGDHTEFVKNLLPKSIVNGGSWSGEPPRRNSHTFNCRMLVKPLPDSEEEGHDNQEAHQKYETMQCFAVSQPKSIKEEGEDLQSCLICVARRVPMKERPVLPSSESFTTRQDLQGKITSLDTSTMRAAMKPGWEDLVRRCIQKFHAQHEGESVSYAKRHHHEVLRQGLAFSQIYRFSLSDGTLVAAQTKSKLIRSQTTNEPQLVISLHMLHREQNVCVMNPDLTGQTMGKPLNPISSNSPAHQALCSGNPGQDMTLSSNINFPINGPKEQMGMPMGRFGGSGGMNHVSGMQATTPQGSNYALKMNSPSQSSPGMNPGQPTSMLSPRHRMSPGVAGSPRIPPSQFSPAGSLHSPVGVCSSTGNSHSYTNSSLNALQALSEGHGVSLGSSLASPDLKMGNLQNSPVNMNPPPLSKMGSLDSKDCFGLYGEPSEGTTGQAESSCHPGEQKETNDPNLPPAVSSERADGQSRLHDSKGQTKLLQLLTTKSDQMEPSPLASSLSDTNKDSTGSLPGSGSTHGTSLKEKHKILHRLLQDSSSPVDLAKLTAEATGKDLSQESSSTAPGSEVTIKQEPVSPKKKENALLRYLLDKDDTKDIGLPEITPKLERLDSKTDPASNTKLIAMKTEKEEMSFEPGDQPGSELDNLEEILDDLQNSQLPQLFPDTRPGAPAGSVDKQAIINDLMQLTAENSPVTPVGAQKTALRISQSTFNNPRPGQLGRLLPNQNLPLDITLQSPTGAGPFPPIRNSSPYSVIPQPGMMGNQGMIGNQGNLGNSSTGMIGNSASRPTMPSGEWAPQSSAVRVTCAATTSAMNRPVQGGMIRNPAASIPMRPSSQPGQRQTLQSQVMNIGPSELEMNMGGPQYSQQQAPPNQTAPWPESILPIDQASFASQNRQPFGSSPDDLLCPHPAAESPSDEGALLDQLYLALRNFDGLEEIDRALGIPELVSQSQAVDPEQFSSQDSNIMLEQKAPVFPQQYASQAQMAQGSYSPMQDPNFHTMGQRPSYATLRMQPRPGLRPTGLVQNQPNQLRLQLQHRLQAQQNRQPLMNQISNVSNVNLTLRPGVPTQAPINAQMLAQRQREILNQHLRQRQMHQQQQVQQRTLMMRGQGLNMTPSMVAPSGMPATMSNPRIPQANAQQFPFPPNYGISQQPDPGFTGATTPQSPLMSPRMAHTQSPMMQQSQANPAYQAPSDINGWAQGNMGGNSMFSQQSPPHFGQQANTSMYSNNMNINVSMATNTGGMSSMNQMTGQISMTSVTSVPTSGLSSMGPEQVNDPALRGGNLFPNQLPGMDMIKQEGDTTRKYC", "assay_type": "functional"}, "[2]": {"molecular_target": "Peroxisome proliferator-activated receptor gamma/Nuclear receptor coactivator 3 (Homo sapiens, UniProt P37231)", "assay_type": "functional"}, "[3]": {"molecular_target": "Peroxisome proliferator-activated receptor gamma/Nuclear receptor coactivator 1 (Homo sapiens, UniProt P37231)", "sequence (P37231 whole entry)": "as the sequence (P37231 whole entry) above", "sequence (Q15788 whole entry, further chain)": "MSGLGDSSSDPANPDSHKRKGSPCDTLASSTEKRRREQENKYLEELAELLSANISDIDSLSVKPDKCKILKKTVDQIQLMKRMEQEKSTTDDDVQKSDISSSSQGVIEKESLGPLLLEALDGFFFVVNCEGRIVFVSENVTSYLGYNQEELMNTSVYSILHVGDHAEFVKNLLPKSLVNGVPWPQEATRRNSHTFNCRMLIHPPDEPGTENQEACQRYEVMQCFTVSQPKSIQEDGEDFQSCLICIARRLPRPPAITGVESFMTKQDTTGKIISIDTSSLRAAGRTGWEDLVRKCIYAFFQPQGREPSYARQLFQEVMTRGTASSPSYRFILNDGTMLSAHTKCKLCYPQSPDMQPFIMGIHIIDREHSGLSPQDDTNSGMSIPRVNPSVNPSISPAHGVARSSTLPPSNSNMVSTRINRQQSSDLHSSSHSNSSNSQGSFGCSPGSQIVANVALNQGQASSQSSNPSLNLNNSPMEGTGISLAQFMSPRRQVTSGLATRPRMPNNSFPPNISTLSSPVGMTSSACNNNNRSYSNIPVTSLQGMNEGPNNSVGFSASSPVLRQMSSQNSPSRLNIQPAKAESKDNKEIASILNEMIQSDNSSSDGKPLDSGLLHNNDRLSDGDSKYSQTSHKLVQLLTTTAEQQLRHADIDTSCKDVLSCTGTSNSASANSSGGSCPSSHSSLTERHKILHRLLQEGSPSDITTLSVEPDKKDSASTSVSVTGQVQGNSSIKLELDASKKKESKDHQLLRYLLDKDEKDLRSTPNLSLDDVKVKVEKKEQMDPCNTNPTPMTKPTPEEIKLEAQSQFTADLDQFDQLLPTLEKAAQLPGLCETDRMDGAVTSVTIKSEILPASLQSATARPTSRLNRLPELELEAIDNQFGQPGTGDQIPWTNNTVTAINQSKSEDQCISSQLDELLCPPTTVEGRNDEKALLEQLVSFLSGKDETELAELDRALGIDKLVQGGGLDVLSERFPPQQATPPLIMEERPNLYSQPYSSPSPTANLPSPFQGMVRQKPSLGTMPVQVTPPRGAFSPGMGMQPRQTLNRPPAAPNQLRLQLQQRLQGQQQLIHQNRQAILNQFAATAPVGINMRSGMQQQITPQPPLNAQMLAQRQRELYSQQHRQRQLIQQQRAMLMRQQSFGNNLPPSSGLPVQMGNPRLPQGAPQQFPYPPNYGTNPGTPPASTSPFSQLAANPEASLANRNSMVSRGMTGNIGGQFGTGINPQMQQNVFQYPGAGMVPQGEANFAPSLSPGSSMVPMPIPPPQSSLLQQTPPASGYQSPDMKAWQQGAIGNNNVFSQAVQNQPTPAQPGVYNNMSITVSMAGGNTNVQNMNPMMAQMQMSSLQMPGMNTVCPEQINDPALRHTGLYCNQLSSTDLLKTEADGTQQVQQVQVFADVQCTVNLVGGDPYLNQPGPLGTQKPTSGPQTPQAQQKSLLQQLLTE", "assay_type": "functional"}, "BJ [4]": {"system": "BJ", "experiment": "cells", "assay_type": "functional, cell-based", "details": "Homo sapiens"}, "[5]": {"experiment": "cytotoxicity toward DRD oncogenic fibroblasts, dose response, cell-based, non-viral oncogenic, luminescence (AID 1934)", "assay_type": "functional", "details": "Homo sapiens"}, "[6]": {"experiment": "cytotoxicity toward NIH3T3 fibroblasts, dose response, counter-screen, cell-based, ATP luminescence, mouse fibroblasts (AID 2010);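 note: cells exposed to compound for about 90 hours before reading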", "assay_type": "functional"}, "[7]": {"experiment": "inhibitors of SNCA 5'UTR-driven reporter translation, confirmation, H4 neuroglioma cells, luminescence (AID 1988)", "assay_type": "functional, cell-based"}, "[8]": {"experiment": "Luminescence-based dose response cell-based high throughput screening assay for cytotoxic compounds using the IEC-6 intestinal epithelial cell line. [Related pubchem assays: 1858 (Summary AID.), 1825 (Counterscreen.), 1907 (Confirmation screen.)]", "assay_type": "functional"}, "[9]": {"experiment": "cytotoxicity in HEK-293T cells, dose response, cytotoxicity control for TCR NF-kB inhibitor project, luminescence, T-cell screen hits (AID 489026);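 note: cells exposed to compound about 14 hours before the viability readout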", "assay_type": "functional, cell-based"}, "cells [10]": {"experiment": "cells", "assay_type": "functional, cell-based"}, "cells [11]": {"experiment": "cells"}, "[12]": {"experiment": "inhibitors of intracellular T. cruzi replication, confirmation, NIH3T3 host cells, beta-gal luminescence (AID 2044);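 note: luminescent beta-galactosidase reporter signal from transgenic T. cruzi replicating inside host cells; inhibitors lower the luminescence signal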", "assay_type": "functional, cell-based"}, "BJ [13]": {"system": "BJ", "experiment": "cytotoxicity toward BJ-TERT fibroblasts, dose response, cell-based, RAS-independent, luminescence (AID 1933)", "assay_type": "functional", "details": "Homo sapiens"}, "[14]": {"experiment": "inhibitors of firefly luciferase expression or activity, dose response, H4 neuroglioma cells, luminescence (AID 1990)", "assay_type": "functional, cell-based"}, "[15]": {"experiment": "inhibitors of SNCA 5'UTR-driven translation, confirmation, luminescence, H4 neuroglioblastoma cells, dose confirmation (AID 2454);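 note: potency for inhibition of the luciferase signal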", "assay_type": "functional, cell-based"}, "[16]": {"experiment": "luciferase reporter signal reduction – luminescence, H4-C neuroglioblastoma cells, dose response (AID 2458);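 note: H4 neuroglioblastoma cells stably carrying a luciferase reporter gene fusion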", "assay_type": "functional, cell-based"}, "[17]": {"experiment": "A Cell Based Secondary Assay To Explore Cytotoxicity of Compounds that Sensitize Mycobacterium Tuberculosis to Beta-Lactam Antibiotics.", "assay_type": "functional"}, "H4": {"system": "H4", "experiment": "Luminescence Cell-Based Dose Response HTS to Identify Activators of 5'UTR Stem-Loop Driven Prion Protein mRNA Translation in H4 Neuroglioblastoma Cells. [Related pubchem assays: 1829 (Project Summary), 1814 (Primary HTS)]", "assay_type": "functional", "details": "Homo sapiens"}, "[18]": {"experiment": "Luminescence Cell-Based Dose Confirmation HTS to Identify Activators of 5'UTR Stem-Loop Driven Alpha-Synuclein mRNA Translation in H4 Neuroglioblastoma Cells. [Related pubchem assays: 1829 (Project Summary), 1814 (Primary HTS)]", "assay_type": "functional"}, "[19]": {"experiment": "Luminescence Cell-Based Dose Response HTS to Identify Activators of Luciferase Translation or Activity in H4 […] Cells. [Related pubchem assays: 1829 (Project Summary), 1814 (Primary HTS)]", "assay_type": "functional"}, "Aspartyl aminopeptidase": {"molecular_target": "T1, Aspartyl aminopeptidase (Plasmodium falciparum 3D7, UniProt Q8I2J3)", "T1 sequence (Q8I2J3 whole entry)": "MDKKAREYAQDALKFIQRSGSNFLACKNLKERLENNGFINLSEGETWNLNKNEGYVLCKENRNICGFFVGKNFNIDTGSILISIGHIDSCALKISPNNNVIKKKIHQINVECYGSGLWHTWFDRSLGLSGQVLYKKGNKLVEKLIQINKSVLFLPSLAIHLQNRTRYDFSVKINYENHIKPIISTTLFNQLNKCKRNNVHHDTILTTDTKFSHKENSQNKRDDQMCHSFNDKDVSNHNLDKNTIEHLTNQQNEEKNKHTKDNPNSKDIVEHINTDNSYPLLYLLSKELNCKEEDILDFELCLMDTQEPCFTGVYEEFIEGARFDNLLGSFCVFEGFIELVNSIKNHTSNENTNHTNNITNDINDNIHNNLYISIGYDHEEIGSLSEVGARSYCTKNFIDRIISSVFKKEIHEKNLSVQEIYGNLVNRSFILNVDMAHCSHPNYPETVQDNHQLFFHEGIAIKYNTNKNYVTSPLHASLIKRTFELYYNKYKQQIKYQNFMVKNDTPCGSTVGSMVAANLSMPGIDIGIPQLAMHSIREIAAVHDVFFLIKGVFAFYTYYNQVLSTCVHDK"}, "Procathepsin L": {"molecular_target": "Procathepsin L (Homo sapiens, UniProt P07711)"}, "[20]": {"experiment": "enhancers of respiration in Yfh1-depleted yeast, dose response, Friedreich's ataxia, plus single-dose screen (AID 1465);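 note: yeast depleted of Yfh1p frataxin homolog grown on glycerol needing respiration; WST-1 tetrazolium dye reduction as measure of cellular dehydrogenase metabolic activity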", "assay_type": "functional"}, "[21]": {"molecular_target": "Induced myeloid leukemia cell differentiation protein Mcl-1 (Homo sapiens, UniProt Q07820)", "sequence (Q07820 whole entry)": "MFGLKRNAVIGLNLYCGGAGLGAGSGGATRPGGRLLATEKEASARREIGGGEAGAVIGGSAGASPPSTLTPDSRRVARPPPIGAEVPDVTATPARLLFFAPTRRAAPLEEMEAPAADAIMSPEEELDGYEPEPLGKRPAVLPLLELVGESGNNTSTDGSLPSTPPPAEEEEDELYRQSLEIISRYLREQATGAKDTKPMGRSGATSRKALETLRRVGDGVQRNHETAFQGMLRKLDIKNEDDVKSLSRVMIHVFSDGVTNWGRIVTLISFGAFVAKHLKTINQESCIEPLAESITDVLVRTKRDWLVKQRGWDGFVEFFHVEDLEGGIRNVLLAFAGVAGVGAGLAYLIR", "assay_type": "functional"}, "NS3": {"molecular_target": "NS3 (Hepatitis C virus, UniProt A3EZJ3)", "sequence (A3EZJ3 whole entry)": "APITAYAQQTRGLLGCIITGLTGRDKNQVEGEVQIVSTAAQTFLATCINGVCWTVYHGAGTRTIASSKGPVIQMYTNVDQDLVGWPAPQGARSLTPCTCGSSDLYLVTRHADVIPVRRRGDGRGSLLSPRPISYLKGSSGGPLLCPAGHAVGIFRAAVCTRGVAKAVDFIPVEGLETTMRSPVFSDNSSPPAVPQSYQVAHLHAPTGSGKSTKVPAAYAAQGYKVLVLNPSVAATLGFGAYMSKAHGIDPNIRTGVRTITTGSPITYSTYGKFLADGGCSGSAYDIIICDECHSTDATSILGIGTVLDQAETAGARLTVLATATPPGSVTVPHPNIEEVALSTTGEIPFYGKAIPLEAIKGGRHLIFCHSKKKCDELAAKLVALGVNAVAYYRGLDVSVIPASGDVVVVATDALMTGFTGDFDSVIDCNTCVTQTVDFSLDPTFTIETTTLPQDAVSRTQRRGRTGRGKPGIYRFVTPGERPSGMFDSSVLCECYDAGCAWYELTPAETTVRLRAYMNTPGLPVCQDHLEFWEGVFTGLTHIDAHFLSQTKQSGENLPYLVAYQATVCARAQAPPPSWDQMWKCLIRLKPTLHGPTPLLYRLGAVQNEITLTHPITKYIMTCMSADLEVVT", "experiment": "PubChem AID 2173", "parameters": "species or system Hepacivirus hominis"}, "Protein Tat": {"molecular_target": "T2, Protein Tat (Human immunodeficiency virus type 1 group M subtype B (isolate HXB2)(HIV-1), UniProt P04608)", "T2 sequence (P04608 whole entry)": "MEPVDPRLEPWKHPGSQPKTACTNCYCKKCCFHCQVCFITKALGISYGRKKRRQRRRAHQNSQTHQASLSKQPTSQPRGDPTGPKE", "assay_type": "functional"}}, "note": "Active and inactive are the calls of the source."}
{"smiles": "CCOC(=O)c1oc2ccc(S(=O)(=O)N3CCC(C)CC3)cc2c1C", "values": [{"measurement": "EC50", "setting": "[1]", "result": "> 79.4 µM (not active)"}, {"measurement": "EC50", "setting": "[2]", "result": "> 79.4 µM (not active)"}, {"measurement": "EC50", "setting": "[3]", "result": "> 79.4 µM (not active)"}]}
{"smiles": "C/C=C(\\C)C(=O)N[C@@H](c1ccccc1)[C@@H](O)C(=O)O[C@H]1C[C@@]2(O)[C@@H](OC(=O)c3ccccc3)C3[C@](C)(C(=O)[C@H](OC(C)=O)C(=C1C)C2(C)C)[C@H](O)C[C@H]1OC[C@@]31OC(C)=O", "note": "(stereo partly specified)", "values": [{"measurement": "EC50", "setting": "BJ [4]", "result": "> 150 µM (not active)"}, {"measurement": "EC50", "setting": "[5]", "result": "< 0.12 µM (active)"}, {"measurement": "EC50", "setting": "[6]", "result": "0.171 µM (active)"}, {"measurement": "EC50", "setting": "[7]", "result": "< 0.1 µM (active)"}, {"measurement": "IC50", "setting": "[8]", "result": "0.101 µM (active)"}, {"measurement": "IC50", "setting": "[9]", "result": "> 80 µM (inactive)"}, {"measurement": "EC50", "setting": "cells [10]", "result": "0.19 µM (active)"}, {"measurement": "EC50", "setting": "cells [11]", "result": "0.011 µM (active)"}, {"measurement": "EC50", "setting": "[12]", "result": "< 0.1 µM (active)"}, {"measurement": "EC50", "setting": "BJ [13]", "result": "0.189 µM (active)"}, {"measurement": "EC50", "setting": "[14]", "result": "1.71 µM (active)"}, {"measurement": "EC50", "setting": "[15]", "result": "0.11 µM (active)"}, {"measurement": "EC50", "setting": "[16]", "result": "0.092 µM (active)"}]}
{"smiles": "N#CC1=C2C=Cc3ccccc3N2CCCC1=O", "values": [{"measurement": "CC50", "setting": "[17]", "result": "> 40 µM (active)"}, {"measurement": "EC50", "setting": "H4", "result": "21 µM (active)"}, {"measurement": "EC50", "setting": "[18]", "result": "20 µM (active)"}, {"measurement": "EC50", "setting": "[19]", "result": "26.4 µM (active)"}]}
{"smiles": "Cc1scc(C(=O)Nn2cnnc2)c1-c1ccccc1", "values": [{"measurement": "IC50", "setting": "Aspartyl aminopeptidase", "result": "3.13 µM (active)"}, {"measurement": "IC50", "setting": "Procathepsin L", "result": "> 59.6 µM (not active)"}]}
{"smiles": "O=C1CNC(=S)N1CCc1ccc(Cl)cc1", "values": [{"measurement": "EC50", "setting": "[20]", "result": "> 100 µM (active)"}]}
{"smiles": "O=C(c1ccc2nc(-c3ccco3)c(-c3ccco3)nc2c1)N1CCN(c2ncccn2)CC1", "values": [{"measurement": "IC50", "setting": "[21]", "result": "7.82 µM (active)"}, {"measurement": "IC50", "setting": "NS3", "result": "11.5 µM (not active)"}, {"measurement": "IC50", "setting": "Protein Tat", "result": "7.28 µM (inconclusive)"}]}
